Source: patent EP2114888B1, “TRICYCLIC COMPOUNDS AND THEIR USE AS GLUCOCORTICOID RECEPTOR MODULATORS” (priority 2007, dated 2008)
Structures can show the parent of a compound that is named as a salt.

Assays:
IL-6 = experiment: IL-1β-stimulated IL-6 production in A549 lung epithelial cells; format: cell-based, Human; conditions: A549 cells; Prednisolone (1 µM) = 100% inhibition control
Description: Human A549 lung epithelial cells (American Type Culture Collection, Rockville, MD) were cultured in Kaighn's F-12K medium with penicillin-streptomycin (10 U/mL) and 10% heat-inactivated fetal bovine serum (all from Invitrogen, Grand Island, NY). A549 cells were plated at a density of 30,000 cells/well in 96-well plates and incubated overnight at 37°C and with 5% CO2. The cells were serum-starved by replacing the growth medium with serum-free Kaighn's F-12K medium with penicillin-streptomycin (10 U/mL) and, again, incubating overnight at 37°C and with 5% CO2. On the third day, the medium was replaced with fresh serum-free medium and the cells were incubated with or without compound (vehicle was DMSO at 0.1 % maximum concentration) for approximately 1 hour and then stimulated with 1 ng/mL recombinant human IL-1β (R&D Systems, Minneapolis, MN) for 20 hours at 37°C and with 5% CO2. Cell supernatants were collected for determination of IL-6 levels using MSD (Meso Scale Discovery, Gaithersburg, MD) 96-well Single Spot plates as per the manufacturer's instructions. Plates were read with an MSD Sector Imager 6000. […] Percent inhibition for each compound concentration, relative to these controls, was calculated using Excel (Microsoft, Redmond, WA). IC50 values were generated using GraFit 5.0 data analysis software (Erithacus Software Ltd., Surrey, UK).

TNFα [1] = experiment: LPS-induced serum TNFα suppression, 28-day repeat dose mouse model; format: in vivo, Swiss Webster female mice; conditions: for TNFα Suppression (ED80 dose): oral gavage, 28 days, LPS-induced serum TNFα
Description: (§1) The compounds were weighed and suspended in a vehicle of 0.5% methylcellulose/0.025% tween 20 (Sigma-Aldrich, St. Louis, MO). Compound suspensions were homogenized using a Polytron PT-3100 tissue homogenizer to create a very fine suspension and were then sonicated for 10 minutes using a water bath sonicator. Aliquots of each suspension were made for daily dosing at 0.2 ml/dose. Swiss Webster female mice, 10-12 weeks old, 28-29 grams, (Taconic, Germantown, NY) were used in accordance with the guidelines of the Institutional Animal Care and Use Committee and in accordance with NIH guidelines on laboratory animal welfare. Mice were acclimated in the Pfizer animal facility for three to seven days prior to being utilized in a study. […] Each treatment group contained 5-10 mice. To establish a dosing regimen for the studies, a pilot pharmacodynamic time course experiment was conducted to quantify TNFα repression after a single ED80 dose.
(§2) Body weights were measured on the first and last day of each experiment. Blood samples were obtained after three weeks of dosing for a steady-state pharmacokinetic (PK) analysis. To assess compound effects on LPS-induced TNFα, all mice received an intraperitoneal injection of LPS (Salmonella typhosa, L-7895; Sigma-Aldrich, St. Louis,) 2.5 hr after the last dose on day 28. Mice were sacrificed 90 minutes after LPS administration. Serum samples were quantified for osteocalcin and TNFα using the multiplex assays (Linco Research, Inc, St. Charles, MO; Luminex 100, Austin, TX). Samples were diluted 1:20 and the assay was run according to manufacturer's instructions. The osteocalcin standard was purchased separately (Biomedical Technologies Inc., Stoughton, MA). Mice were fasted for 4 hours before serum was collected for TNFα, and osteocalcin levels. For each experiment, outliers were detected by calculating the number of standard deviations from the mean of the group. If the value being examined was more than 2.5 standard deviations from the mean, it was excluded from the rest of the calculations.
(§3) The individual mouse percent inhibition values were fit to a four-parameter logistic model using the dose mean for each group.
(§4) ED50 and ED80 values were obtained for the various endpoints using a four-parameter logistic fit. For compounds which were tested multiple times, ED50 and ED80 values were obtained using four-parameter logistic fits of the combined data from multiple experiments.

[2] = tested on: Mouse Collagen-induced arthritis (mCIA); experiment: Therapeutic mouse collagen-induced arthritis (mCIA) model; format: in vivo, Male DBA/J mice; conditions: for Therapeutic mCIA (ED80 dose): dosing day 34 through day 49
Excerpt: Mouse Collagen-induced arthritis is a commonly used chronic, preclinical model of rheumatoid arthritis in which joint swelling and bone destruction occur following immunization with type II collagen. Reduction of disease incidence and severity has been shown previously to be predictive of disease-modification and signs and symptoms mitigation, respectively, in a clinical setting. In the therapeutic mCIA model, induction of disease incidence and severity was synchronized via LPS stimulation. Male DBA/J mice were immunized with 100 ug of bovine type II collagen (bCII) on day 0. […] Dosing of compounds was initiated in the therapeutic mode on day 34 and continued through day 49. Different treatments were compared by measuring the decrease in incidence (i.e., resolution of disease) and the decrease in severity of paw swelling over time.

TNFα [3] = experiment: LPS-stimulated TNFα production in differentiated U937 cells; format: cell-based, Human; conditions: for TNFα % Inhibition: U937 cells
Description: Human U937 pre-monocytic cells (American Type Culture Collection, Rockville, MD) were cultured in RPMI 1640 with glutamine (2 mM), penicillin-streptomycin (10 U/mL) and 10% heat-inactivated fetal bovine serum (all from Invitrogen, Grand Island, NY). Cells were differentiated to a monocyte/macrophage phenotype with phorbol 12-myristate 13-acetate (Sigma-Aldrich, St. Louis, MO), 20 ng/mL, overnight. The cells were then centrifuged, the medium aspirated, the cells resuspended in an equal volume of fresh RPMI 1640 medium with glutamine and penicillin-streptomycin and fetal bovine serum as listed above, and incubated for 48 hours at 37°C and with 5% CO2. Following recovery, the cells were scraped, counted, and plated in accordance to the experimental design prior to stimulation with LPS, as described below.
U937 cells were differentiated and plated at a density of 200,000 cells/well in 96-well plates. Cells were incubated with or without compound (vehicle was DMSO at 1% maximum concentration) for approximately one hour and then stimulated with 100 ng/mL lipopolysaccharide (LPS), E. coli serotype 0111:B4 (Sigma-Aldrich, St. Louis, MO) for four hours at 37°C and with 5% CO2. Cell supernatants were collected for determination of TNFα levels using an in-house sandwich-type ELISA. Mouse anti-human TNFα monoclonal antibody (clone 28401.111) and biotinylated goat anti-human TNFα (R&D Systems, Minneapolis, MN) were used as the capture and detection antibodies, respectively. Streptavidin-horseradish peroxidase (HRP) (R&D Systems, Minneapolis, MN) and K-Blue Substrate/Red Stop (Neogen, Lexington, KY) were used as the detection system. Absorbance was measured at 650 nm. TNFα concentrations were interpolated from a human TNFα recombinant protein (R&D Systems, Minneapolis, MN) standard curve using a four parameter logistics model by Magellan 4.11 data analysis software (Tecan, Durham, NC). […] Vehicle was used to define the 0% inhibition control. Percent inhibition for each concentration of compound, relative to these controls, was calculated using Excel (Microsoft, Redmond, WA). IC50 values were generated using LabStats Fit Curve V4.R7.MO data analysis software (Pfizer Sandwich Laboratories, UK and Tessella Support Services plc, Abingdon UK).

[4] = Serum osteocalcin suppression, 28-day repeat dose mouse model; conditions: in vivo, po
Description: as §1, §2, §3, §4

osteocalcin = experiment: as above; conditions: in vivo, po
Description: as §1, §2, §3, §4

[5] = Prednisolone (1 µM) = 100% inhibition control

## Cc1ncccc1NC(=O)c1ccc2c(c1)CC[C@@H]1C[C@@](O)(C(F)F)CC[C@@]21Cc1ccccc1 [Comparator H, (4βS,7R,8αR)-4β-benzyl-7-(difluoromethyl)-7-hydroxy-N-(2-methylpyridin-3-yl)-4α,5,6,7,8,8α,9,10-octahydrophenanthrene-2-carboxamide]
IL-6
  IL-6 % Inhibition: 64.9%
TNFα [1]
  TNFα Suppression (ED80 dose): 0.72 mg/kg

## Cc1cnc(NC(=O)c2ccc3c(c2)CC[C@@H]2C[C@@](O)(C(F)(F)F)CC[C@@]32Cc2ccccc2)c(C)n1 [Comparator B, (4βS,7R,8αR)-4β-benzyl-N-(3,5-dimethylpyrazin-2-yl)-7-hydroxy-7-(trifluoromethyl)-4α,5,6,7,8,8α,9,10-octahydrophenanthrene-2-carboxamide]
IL-6
  IL-6 % Inhibition: 75.8%
TNFα [1]
  TNFα Suppression (ED80 dose): 2.91 mg/kg
[2]
  Therapeutic mCIA (ED80 dose): >10 mg/kg

## Cc1ncccc1NC(=O)c1ccc2c(c1)C=C[C@@H]1C[C@@](O)(C(F)(F)F)CC[C@@]21Cc1ccccc1 [Comparator I, (4βS,7R,8αS)-4β-benzyl-7-hydroxy-N-(2-methylpyridin-3-yl)-7-(trifluoromethyl)-4β,5,6,7,8,8α-hexahydrophenanthrene-2-carboxamide]
IL-6
  IL-6 % Inhibition: 67.5%
TNFα [1]
  TNFα Suppression (ED80 dose): 5.45 mg/kg
[2]
  Therapeutic mCIA (ED80 dose): >20 mg/kg

## Cc1ncccc1NC(=O)c1ccc2c(c1)C(=O)C[C@@H]1C[C@@](O)(C(F)(F)F)CC[C@@]21Cc1ccccc1 [Comparator E, (4βS,7R,8αS)-4β-benzyl-7-hydroxy-N-(2-methylpyridin-3-yl)-10-oxo-7-(trifluoromethyl)-4α,5,6,7,8,8α,9,10-octahydrophenanthrene-2-carboxamide]
IL-6
  IL-6 % Inhibition: 79.7%
TNFα [1]
  TNFα Suppression (ED80 dose): 1.18 mg/kg
[2]
  Therapeutic mCIA (ED80 dose): 2.6 mg/kg

## Cc1ncccc1NC(=O)c1ccc2c(c1)CC[C@@H]1C[C@@](O)(C(F)(F)F)CC[C@@]21Cc1ccccc1 [Example 1 HCL salt, (4βS,7R,8αR)-4β-benzyl-7-hydroxy-N-(2-methylpyridin-3-yl)-7-(trifluoromethyl)-4β,5,6,7,8,8α,9,10-octahydrophenanthrene-2-carboxamide]
IL-6
  IL-6 % Inhibition: 76.9%
TNFα [3]; [5]
  TNFα % Inhibition: 77.1%
TNFα [3]; additional result (footnote a)
  TNFα % Inhibition: 62%

## Cc1ncccc1NC(=O)c1ccc2c(c1)[C@H](O)C[C@@H]1C[C@@](O)(C(F)(F)F)CC[C@@]21Cc1ccccc1 [Comparator F, (4βS,7R,8αR,10R)-4β-benzyl-7,10-dihydroxy-N-(2-methylpyridin-3-yl)-7-(trifluoromethyl)-4β,5,6,7,8,8α,9,10-octahydrophenanthrene-2-carboxamide]
IL-6
  IL-6 % Inhibition: 83.3%
TNFα [1]
  TNFα Suppression (ED80 dose): 5.67 mg/kg
[2]
  Therapeutic mCIA (ED80 dose): >10 mg/kg

## Cc1ncccc1CNC(=O)c1ccc2c(c1)CC[C@@H]1C[C@@](O)(CCC(F)(F)F)CC[C@@]21Cc1ccccc1 [Comparator A, (4βS,7S,8αR)-4β-benzyl-7-hydroxy-N-((2-methylpyridin-3-yl)methyl)-7-(3,3,3-trifluoropropyl)-4β,5,6,7,8,8α,9,10-octahydrophenanthrene-2-carboxamide, reference compound]
IL-6
  IL-6 % Inhibition: 59.9%
TNFα [3]; [5]
  TNFα % Inhibition: 35%

## Cc1ncccc1NC(=O)c1ccc2c(c1)CC[C@@H]1C[C@@](O)(CCC(F)(F)F)CC[C@@]21Cc1ccccc1 [Comparator C, (4βS,7S,8αR)-4β-benzyl-7-hydroxy-N-(2-methylpyridin-3-yl)-7-(3,3,3-trifluoropropyl)-4β,5,6,7,8,8α,9,10-octahydrophenanthrene-2-carboxamide]
IL-6
  IL-6 % Inhibition: 82.6%
TNFα [1]
  TNFα Suppression (ED80 dose): 1.33 mg/kg
[2]
  Therapeutic mCIA (ED80 dose): >10 mg/kg

## Cc1ccncc1NC(=O)c1ccc2c(c1)CC[C@@H]1C[C@@](O)(C(F)(F)F)CC[C@@]21Cc1ccccc1 [Comparator D, (4βS,7R,8αR)-4β-benzyl-7-hydroxy-N-(4-methylpyridin-3-yl)-7-(trifluoromethyl)-4,5,6,7,8,8α,9,10-octahydrophenanthrene-2-carboxamide]
IL-6
  IL-6 % Inhibition: 79.8%
TNFα [1]
  TNFα Suppression (ED80 dose): >20 mg/kg

## Cc1ncc(NC(=O)c2ccc3c(c2)CC[C@@H]2C[C@@](O)(CCC(F)(F)F)CC[C@@]32Cc2ccccc2)c(C)n1 [Comparator J, (4βS,7S,8αR)-4β-benzyl-N-(2,4-dimethylpyrimidin-5-yl)-7-hydroxy-7-(3,3,3-trifluoropropyl)-4β,5,6,7,8,8α,9,10-octahydrophenanthrene-2-carboxamide]
IL-6
  IL-6 % Inhibition: 55%
TNFα [1]
  TNFα Suppression (ED80 dose): 0.79 mg/kg
[2]
  Therapeutic mCIA (ED80 dose): >20 mg/kg

## C[C@]12C=CC(=O)C=C1CC[C@@H]1[C@@H]2[C@@H](O)C[C@@]2(C)[C@H]1CC[C@]2(O)C(=O)CO [Prednisolone, reference compound]
TNFα [1]; Mus musculus, po, 672 h, read-out: TNFα Suppression (ED80 dose)
  ED80: 2.1 mg/kg
TNFα [3]; Homo sapiens, U-937, read-out: TNFα % Inhibition
  inhibition at 1 µM: 100%
[4]
  ED50: 1 mg/kg
osteocalcin
  Osteocalcin Suppression (ED80 dose): 6.80 mg/kg
[2]; Mus musculus, read-out: Therapeutic mCIA (ED80 dose)
  ED80: 5.5 mg/kg
